# In patent US20230293699A1, “USE OF A BORON CLUSTER AS TRANSMEMBRANE CARRIER” (CONSTRUCTOR UNIVERSITY BREMEN GGMBH, priority 2020, published 2023):
# How the values were obtained:
# [1] = Transport of a bioactive molecule through a membrane by fused, multinuclear and iodinated clusters
# Excerpt: Also fused boron clusters and multinuclear boron clusters were successfully used as transporters for a bioactive molecule through a membrane.
# [2] = HPTS/DPX vesicle transport assay; assay type: biochemical; conditions: for transport of heptaarginine across the lipid membrane of the vesicles: cargo heptaarginine (H-Trp-Arg7-OH), HPTS fluorescence increase; for transport of positive, zwitterionic and neutral cargo into vesicles: cargo: singly charged, neutral biomolecules, vitamins, antibiotics, neuromuscular blocking agents, proteins
# Excerpt: A: Heptaarginine, B: Heptalysine, C: Protamine, D: Acethylcholine, E: Pancuronium, F: Vecuronium, G: Vitamin B1, H: Ranitidin, I: Tryptophan, J: Ampicilin, K: Phenylalanine, L: Phalloidin, M: Glutamic acid, and N: Bovine albumin. +: positively charged cargos, +/−: zwitterionic cargos, ©: neutral cargo, and −: negatively charged cargos;
# A hydrophilic heptaarginine peptide (H-Trp-Arg7-OH) which is unable to spontaneously translocate across neutral phosphocholine lipid vesicles in the absence of counterion activators was used as prototype for cationic cell-penetrating molecular scaffolds (peptides and polymers). The capability of boron clusters to activate the transport of the heptaarginine peptide (H-Trp-Arg7-OH) was investigated first in large unilamellar vesicles (LUVs). The HPTS/DPX assay, that uses 8-hydroxypyrene-1,3,6-trisulfonate and p-xylene-bis-pyridinium, was implemented to monitor peptide-transport activation by the clusters. This assay not only reports on the potential of a synthetic carrier to transport the positively charged peptide into a vesicle, but also to shuttle the cationic quencher DPX to the outside.
# Transport can accordingly be monitored, and the activator efficacy quantified, by a time-resolved fluorescence increase at different concentrations of the carrier.
# HTPS emission was monitored during the sequential addition of the globular cluster carrier and peptide cargo; a strong detergent (Triton® X-100) was added at the end to affect vesicle lysis and complete dye release that allowed a normalization of the fluorescence intensity data.
# This was validated in vesicle transport experiments, which included targets which have not been previously accessible to other non-covalent synthetic carriers or counterion activators. The targets included singly charged, zwitterionic, and neutral biomolecules (such as acetylcholine and amino acids), vitamins, antibiotics, neuromuscular blocking agents and proteins.
# HeLa cells = assay: Tm-Arg8 endosomal escape by confocal fluorescence microscopy; assay type: cell-based
# Method: Cells were incubated with 1 μM Tm-Arg8 and 0 (left picture) or 10 μM clusters diluted in HKR buffer for 1 hour, washed twice with HKR buffer, and imaged by confocal fluorescence microscopy; Images show TAMRA fluorescence (light gray) and the brightfield in the inset pictures; scale bars: 50 μm;
# The potential of boron clusters to trigger the endosomal escape into live cells was first studied for oligocationic peptides as cargo. As a prototype, the octaarginine peptide labelled with carboxytetramethylrhodamine (Tm-Arg8) was selected, which at low concentrations (i.e., 1 μM) enters cells by endocytosis and remains trapped in the intracellular compartments. The cytosolic delivery of Tm-Arg8 was followed by confocal microscopy in the presence and absence of superchaotropic boron clusters (FIG. 4).
# [3] = system: Escherichia coli Top10 strain; assay: E. coli Top10 viability with kanamycin A and B1; assay type: cell-based
# Method: Bar graphs (left) and time course (right) of E. coli Top10 viability in the presence of different concentrations of kanamycin monosulfate (0, 2500, 3000 or 3500 nM) and B1 (0, 500, 750 or 1000 μM) in LB broth at 37° C.; error bars (shown on the right) refer to the standard deviation (n=3; V (%): E. coli Top10 viability, [KA] […]
# For kanamycin A, effective passage through the cell membrane into the cytosol is essential to reach its intracellular targets. […] In the absence of the cluster, E. coli retained viability (60%), which disappeared almost completely (<5%) in the presence of the antibiotics carrier (FIG. 5). The enhanced antibiotic activity is attributed to the boron cluster's carrier potential as all other factors were left the same.
# Cereblon E3 Ligase = target: T1, Cereblon E3 Ligase (Homo sapiens, UniProt Q96SW2); assay: NanoBRET TE Intracellular E3 Ligase Assay (CRBN target engagement); assay type: cell-based; conditions: dBET1 in presence vs absence of B1 (0, 25, 50 μM)
# T1 construct: expressed in transfected cells
# Method: Crossbars and error bars indicate mean and standard deviation; values obtained in each experimental value are represented with a different shape;
# For dBET1, a PROTAC with known low permeability, it was shown that B1 enhances its activity. The internalization of this PROTAC in the absence and presence of the cluster was assessed by its ability to bind to the Cereblon E3 Ligase by using a NanoBRET™ TE Intracellular E3 Ligase Assay. Enhanced uptake of dBET1 was observed (factor 2-3 decrease in IC50 value).
# mammalian cell = assay: Mammalian cell survival; assay type: cell-based; conditions: 500 μM
# T1 sequence (Q96SW2 whole entry): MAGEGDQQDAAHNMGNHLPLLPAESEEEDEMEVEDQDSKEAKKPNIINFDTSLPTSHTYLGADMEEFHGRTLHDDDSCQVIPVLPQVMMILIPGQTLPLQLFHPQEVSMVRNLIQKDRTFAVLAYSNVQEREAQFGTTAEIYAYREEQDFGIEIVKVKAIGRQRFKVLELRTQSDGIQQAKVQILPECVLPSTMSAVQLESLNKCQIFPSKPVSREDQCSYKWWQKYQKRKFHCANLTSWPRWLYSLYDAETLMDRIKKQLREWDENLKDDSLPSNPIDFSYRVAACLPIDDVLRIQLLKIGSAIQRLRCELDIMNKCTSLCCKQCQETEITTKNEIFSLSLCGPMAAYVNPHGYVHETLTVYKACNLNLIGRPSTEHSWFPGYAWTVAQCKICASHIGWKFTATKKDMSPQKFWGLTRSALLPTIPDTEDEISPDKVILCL
molecule,measurement,setting,value
"(1,7-C2B9H11)2-2,2′-Co^− [CS2]",use as transporter / active cluster for a bioactive molecule through a membrane,[1],successfully used as active clusters
B12Br11—O-n-C3H7^2− [B2],transport of heptaarginine across the lipid membrane of the vesicles,[2],little influence
B12H11NBD^− [B3],transport of heptaarginine across the lipid membrane of the vesicles,[2],efficient transport
same,Tm-Arg8 peptide endosomal escape (diffuse cytosolic fluorescence),"HeLa cells; 1 μM Tm-Arg8, 10 μM cluster, HKR buffer, 1 hour",excellent peptide endosomal escape
same,peptide and cluster colocalization,HeLa cells; fluorescent cluster with Tm-Arg8,significant peptide and cluster colocalization
"(1,2-C2B9HO2-3,3′-Co^− [CS1]",use as transporter / active cluster for a bioactive molecule through a membrane,[1],successfully used as active clusters
B12Br12^2−,transport of negatively charged cargo into vesicles,[2]; cargo glutamate and albumin,with the exception of the negatively charged molecules (glutamate and albumin)
same,"transport of positive, zwitterionic and neutral cargo into vesicles",[2],transported all types of cargo (positive and neutral)
same,E. coli viability,[3]; kanamycin A 3.5 μg/ml in the presence of B1 500 μM,< 5%
same,decrease in IC50 value of dBET1,Cereblon E3 Ligase,2-3 factor
same,compatibility with mammalian cell survival,mammalian cell,compatible with mammalian cell survival
"(8-I-1,2-C2B9H10)-(1′2′-C2B9H11)-3,3′-Co^− [CS4]",use as transporter / active cluster for a bioactive molecule through a membrane,[1],successfully used as active clusters
"8,8′-I2-(1,2-C2B9H10)2-3,3′-Co^− [CS6]",use as transporter / active cluster for a bioactive molecule through a membrane,[1],successfully used as active clusters
pyrene butyrate [reference compound],fluorescence response (transport) of zwitterionic or neutral analytes,"[2]; analytes acetylcholine, tryptophan, ampicillin, vecuronium and phalloidin, comparison activator","None of the selected, zwitterionic or neutral, analytes (acetylcholine, tryptophan, ampicillin, vecuronium and phalloidin) showed any fluorescence response"
B10Br10^2− [B4],"transport of positive, zwitterionic and neutral cargo into vesicles",[2],same trends were reproduced in transport efficiency
NC[C@H]1O[C@H](O[C@H]2[C@H](O)[C@@H](O[C@H]3O[C@H](CO)[C@@H](O)[C@H](N)[C@H]3O)[C@H](N)C[C@@H]2N)[C@H](O)[C@@H](O)[C@@H]1O [kanamycin A],viability at 3.5 µg/mL,"[3]; Escherichia coli, TOP10STRAIN, read-out: E. coli viability",60%
same,antibiotic effectiveness in bacteria,[3]; antibiotic transported by boron cluster,increased its effectiveness
